According to patent publication US12473295B2, “Substituted straight chain spiro derivatives” (Janssen Pharmaceutica NV, priority 2019, dated 2025):

System: Cor.4U Cardiomyocytes
Test: Ca2+-fluorescence assay in human pluripotent stem cell-derived cardiomyocytes (CTCM human), Cor.4U Cardiomyocytes
Assay type: cell-based
Set-up: key: Green: No concern; Yellow: Low concern; Red: High concern; Black: Very high concern due to arrhythmic events
Conditions: 30 min
Method: 7) Cardio-Electrophysiological Effects of the Testing Compounds in Synchronously Beating Human Pluripotent Stem Cell-Derived Cardiomyocytes (hSC-CMs) Using a Ca^2+-Fluorescence Assay (CTCM Human)
Compounds were tested in the 96-well plates
Compounds were tested at 0.1 μM, 0.2 μM, 0.5 μM, 1 μM, 2.5 μM and 5 μM (n=4 per dose) on Cor.4U 9-Cardiomyocytes or on iCell® Cardiomyocytes2 […]
Dimethylsulfoxide (DMSO). The solutions of the compound in DMSO or its solvent (final concentration of 0.1% DMSO; n=8)
Preparation of Test Article and Controls
Tested compounds were dissolved in DMSO at 1000-fold the intended concentrations. A compound “mother-plate” was made, containing the test compounds and positive and negative controls at 1000-fold the final concentrations. At the experiment day, these stock solutions were diluted with Tyrode (Sigma), supplemented with 10 mM HEPES (Gibco), to 2-fold the intended concentration (in round bottom compound plates). Final DMSO concentration in test solutions and vehicle control was 0.1%.
hSC-CMs (Cor.4U® Cardiomyocytes) were obtained from CDI (Ncardia, Germany). Cells are pre-plated and seeded in fibronectin-coated 96-well plates at a density suited to form a monolayer and maintained in culture in a stage incubator (37° C., 5% CO2), according to the instructions of the cell provider.
Before Start of Experiment
At least one hour before the start of the experiments the normal cell medium was replaced with Tyrode solution with Calcium dye (see below).
Cal 520 dye (AAT Bioquest) was dissolved in 11 ml of Tyrode supplemented with 10 mM HEPES and warmed up to 37° C. before adding to the cells.
35 μl cell culture medium was removed from each well and replaced with 35 μl of pre-warmed Cal 520 dye solution and cell plate was incubated for 45 min at 37° C./5% CO2. Cells were incubated for 5 min at 37° C.
Spontaneous electrical activity is recorded, using Cal520™ (AAT Bioquest) calcium fluorescence-dye signaling. This dye integrates the total intracellular calcium activity over the whole well. A bottle of Cal520 dye (50 μg, MW: 1103/mol) is dissolved with 50 μl DMSO as a stock solution of 0.9 mM. 50 μL of the stock solution of the dye was added to 10 ml Tryodes solution to have dye concentration of 4.5 μM. Subsequently, 35 μl of this dye solution was added into each well, to have a final dye concentration of 1.58 μM. The current dye protocol on this CTCM human assay was established recently (Ivan Kopljar et al, Journal of Pharmacological and toxicological methods 2018. 91: 80-86; Lu et al., Tox Sci 2019. 170 (2): 345-356).
Fluorescent signals (Ca^2+ transient morphology) were measured using the Functional Drug Screen System (FDSS/μCell; Hamamatsu, Japan) and the recordings were subsequently analyzed off-line, using appropriate software e.g. Notocord.
The cell plate was loaded into the FDSS/μCell for a test run: Ca^2+ transients were measured for 4 minutes to check for synchronous beating of the cardiomyocytes in each well. All 96 wells were measured simultaneously (sampling interval: 0.06 s, short exposure time: 10 ms; excitation wavelength 480 nm; emission wavelength 540 nm; FDSS/μCell warmed to 37° C.).
During the compound addition step, 100 μl of the respective double-concentrated test solutions was pipetted into each well simultaneously.
Data were analyzed off-line using appropriate software e.g. Notocord-Hem (version 4.3).
The following parameters of the Ca^2′ transient morphology were measured: • beat rate (BR) • amplitude of the Ca^2+ transient (Amp), • CTD90: Ca^2+ transient duration at 90% (time to 90% of the initial base value).
The presence of various ‘arrhythmia-like’ activities were also noted during the experimental periods. […]

CC(C)[C@@H](CCC(C)(C)N)N1CC2(CCN(c3ncnnc3Oc3ccc(F)cc3-c3cncnc3C3CC3)C2)C1 (single isomer, unassigned) [Compound 37, (*R)-5-(6-(6-(2-(4-cyclopropylpyrimidin-5-yl)-4-fluorophenoxy)-1,2,4-triazin-5-yl)-2,6-diazaspiro[3.4]octan-2-yl)-2,6-dimethylheptan-2-amine]
Green: Color @ 0.1 μM (hazard score) (0.1 μM) | Color @ 0.2 μM (hazard score) (0.2 μM) | Color @ 0.5 μM (hazard score) (0.5 μM) | Color @ 1 μM (hazard score) (1 μM) | Color @ 2.5 μM (hazard score) (2.5 μM) | Color @ 5 μM (hazard score) (5 μM)
